This is an account of results in patent US20210128561A1, “MRGX Receptor Antagonists” (Rheinische-Friedrich-Wilhelms-Universität Bonn, priority 2019, published 2021).

Where two headings read alike, the source gives them in different places. Ends that are not written are not given here. A value given as a limit tells only on which side of the number the result lay.

The target in assay [1] is T1, MrgX2 (Homo sapiens, UniProt Q96LB1).
T1 construct: host or cells: recombinant HEK cells (A3); CHEM1 cells recombinantly expressing MrgX2 (A11)
T1 sequence (Q96LB1 1-330): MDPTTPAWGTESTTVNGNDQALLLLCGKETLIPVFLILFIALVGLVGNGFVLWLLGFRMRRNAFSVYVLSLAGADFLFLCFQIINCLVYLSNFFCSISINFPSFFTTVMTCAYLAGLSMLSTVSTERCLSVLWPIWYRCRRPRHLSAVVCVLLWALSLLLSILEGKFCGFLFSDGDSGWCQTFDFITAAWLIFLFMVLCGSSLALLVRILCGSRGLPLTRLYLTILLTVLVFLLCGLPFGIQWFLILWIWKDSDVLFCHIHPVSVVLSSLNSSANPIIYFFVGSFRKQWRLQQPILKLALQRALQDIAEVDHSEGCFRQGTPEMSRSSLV
As to conditions: read-out: EC50 value; calcium assays, MrgX2 activation; cited from earlier work.

In the next assay the test system is human LAD2 mast cells. As to conditions: cited from earlier work.
For assay [2], the target named is T1, MrgX2. As to conditions: calcium assays; cited from earlier work.
The target in assay [3] is T1, MrgX2. As to conditions: versus CST-14, calcium mobilization; cited from earlier work.
The target of another assay is T2, human MrgX4 L83S (Homo sapiens, UniProt Q96LA9, L83S).
T2 construct: expressed in transfected cells; host or cells: CHO beta-arrestin cells
The assay can be described thus: β-arrestin assay (CHO β-arrestin human MrgX4 L83S). In kind it is cell-based.

In the next assay the target is T3, human wildtype MrgX2 (Homo sapiens, UniProt Q96LB1).
T3 construct: expressed in transfected cells; host or cells: LN229 cells
T3 sequence (Q96LB1 1-330): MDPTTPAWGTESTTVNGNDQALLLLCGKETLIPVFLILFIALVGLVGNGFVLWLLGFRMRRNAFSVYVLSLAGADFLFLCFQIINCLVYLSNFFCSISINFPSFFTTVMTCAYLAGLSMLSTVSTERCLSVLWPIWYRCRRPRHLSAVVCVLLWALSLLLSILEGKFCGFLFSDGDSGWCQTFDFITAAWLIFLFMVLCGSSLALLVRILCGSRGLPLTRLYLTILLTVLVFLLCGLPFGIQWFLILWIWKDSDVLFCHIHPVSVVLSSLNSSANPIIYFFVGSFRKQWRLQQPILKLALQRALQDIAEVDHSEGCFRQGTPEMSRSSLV
The assay can be described thus: calcium assay (LN229 cells recombinantly expressing human wildtype MrgX2). In kind it is cell-based. As to conditions: for % inhibition ± SEM: test concentration not given.

Assay [4] deals with T1, MrgX2. As to conditions: β-arrestin assay; cited from earlier work.
The target of assay [5] is T1, MrgX2. Conditions: calcium mobilization assay; cited from earlier work.
Assay [6] deals with CHEM1 cells without MrgX2 overexpression. Conditions: cited from earlier work.
Assay [7] deals with T1, MrgX2. Conditions: CHEM1 cell line recombinantly expressing MrgX2; cited from earlier work.

T2 sequence (Q96LA9 whole entry L83S): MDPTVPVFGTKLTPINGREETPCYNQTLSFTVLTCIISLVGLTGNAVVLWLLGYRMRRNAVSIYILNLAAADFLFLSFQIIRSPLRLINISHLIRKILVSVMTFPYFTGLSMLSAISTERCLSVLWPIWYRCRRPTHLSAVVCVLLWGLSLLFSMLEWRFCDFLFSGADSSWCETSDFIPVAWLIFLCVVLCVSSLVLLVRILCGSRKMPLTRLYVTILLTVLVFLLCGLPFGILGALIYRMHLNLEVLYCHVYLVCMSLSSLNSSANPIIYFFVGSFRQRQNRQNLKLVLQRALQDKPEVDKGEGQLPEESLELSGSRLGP

For `COc1ccc2c(c1)[C@@]13CCCC[C@H]1[C@@H](C2)NCC3` [3-methoxymorphinan], the concentration for a half-maximal effect (EC50) on MrgX2 [1] was 4700 nM.

Turning to `O=C(/C=C/c1ccc(O)cc1)c1ccc(O)cc1O` [isoliquiritigenin, Isoliquiritigenin], the “β-hexosaminidase release of compound 48/80 and isoliquiritigenin together” value in the assay with human LAD2 mast cells (50 μM isoliquiritigenin vs. 30 μg/mL (≈31.2 μM) compound 48/80, LAD2) was 40%.

On to `CN1CC[C@]23c4c5ccc(O)c4O[C@H]2[C@@H](O)C=C[C@H]3[C@H]1C5` [morphine], for which, on MrgX2 [1], the EC50 was 4500 nM.

With Gln-D-Trp(Formyl-)Phe-benzylester [QWF], in the assay with human LAD2 mast cells (100 μM QWF vs. 1 μM substance P, LAD2), the “β-hexosaminidase release of SP and QWF together” value is given as 20%.

On to “substance P (RPKPQQFFGLM-NH2; ends and bridges not checked; UniProt P20366 58-68, looked up)”, for which the “β-hexosaminidase release of SP alone” value with human LAD2 mast cells (1 μM substance P, LAD2) is recorded as 60%. Also, the “β-hexosaminidase release of substance P alone” value in the assay on human LAD2 mast cells (saikosaponin A study, stimulus stated as 30 μg/mL compound 48/80, LAD2) was 100%.

Consider `C[C@@H]1C[C@H]2Cc3ncc(-c4ccc5c(n4)C[C@@H]4C[C@@H](C)C[C@]56NCCC[C@H]46)cc3[C@]3(C1)NCCC[C@H]23` [Complanadine A], for which the EC50 at MrgX2 [2] was 5500 nM.

As for `O=c1c2ccccc2[nH]c(=S)n1Cc1ccccn1` [compound 2, 3-(pyridine-2-ylmethyl)-2-thioxo-2,3-dihydro-4H-1λ^2-quinazolin-4-one], at MrgX2 [3], the IC50 was 2500 nM.

`C[C@H]1O[C@@H](O[C@H]2CC[C@@]3(C)[C@@H](CC[C@]4(C)[C@@H]3C=C[C@]35OC[C@@]6(CCC(C)(C)C[C@H]63)[C@@H](O)C[C@]54C)[C@]2(C)CO)[C@H](O)[C@@H](O[C@@H]2O[C@H](CO)[C@@H](O)[C@H](O)[C@H]2O)[C@H]1O` [saikosaponin A, Saikosaponin A]: in the assay with human LAD2 mast cells (0.50 μM saikosaponin A vs. 30 μg/mL (≈31.2 μM) compound 48/80, LAD2), the “β-hexosaminidase release of substance P and saikosaponin A together” value was 30%.

Consider `CC(=O)N1c2ccccc2Nc2ccccc21` [Compound 1, 1-(5H-10λ^2-phenazin-5-yl)ethan-lone], for which the IC50 at MrgX2 [3] is 1600 nM.

Regarding `CN1CC[C@@]23CCCC[C@@H]2[C@@H]1Cc1ccc(O)cc13` [dextrorphan], the EC50 on MrgX2 [1] was 1400 nM.

As to `CCCc1c(C)[nH]c2nc3ccccc3n2c1=O` [A-10], the IC50 on human MrgX4 L83S is 2420 ± 220 nM; on human wildtype MrgX2, 683 ± 174 nM.

In turn, `CCCc1c(CC)c(=O)n2c([nH]c3ccccc32)c1C#N` [C-88] yielded an IC50 against human MrgX4 L83S of 5540 ± 1740 nM. Also, at human wildtype MrgX2, the IC50 is more than 10000 nM and the “% inhibition ± SEM” value stood at 86%.

Regarding `CCc1c(C(C)C)[nH]c2nc3ccccc3n2c1=O` [B-37], the results for the IC50 against human MrgX4 L83S and on human wildtype MrgX2 were 290 ± 98 nM and 2.48 ± 0.75 nM, respectively.

For the molecule `CCc1c(C(C)C)[nH]c2nc3cc(Br)c(Br)cc3n2c1=O` [C-75], the IC50 on human MrgX4 L83S came out at 890 ± 184 nM; on human wildtype MrgX2 it was 36.8 ± 8.4 nM.

As to `CCc1c(C)[nH]c2nc3ccccc3n2c1=O` [A-9], the figures for the IC50 at human MrgX4 L83S and on human wildtype MrgX2 were 3230 ± 360 nM and 662 ± 102 nM, respectively.

Consider `CCc1c(-c2ccccc2)[nH]c2nc3ccccc3n2c1=O` [C-79], for which the IC50 against human MrgX4 L83S was 540 ± 76 nM; on human wildtype MrgX2, more than 10000 nM. In addition, the “% inhibition ± SEM” value at human wildtype MrgX2 amounted to 105%.

Turning to `CN1CC[C@]2(c3cccc(O)c3)Cc3nc4ccccc4cc3C[C@H]2C1` [TAN-67], the concentration giving a half-maximal response (EC50) on MrgX2 [4] and at MrgX2 [5] was approximately 1000 nM each time.

For the molecule `O=c1c2c([nH]c3nc4ccccc4n13)CCCC2` [B-55], on human MrgX4 L83S, the IC50 amounted to 5660 ± 1150 nM. On human wildtype MrgX2, the half-inhibitory concentration (IC50) is more than 100000 nM and the “% inhibition ± SEM” value came out at 20%.

Regarding `CC(C)c1cc(=O)n2c3ccccc3n(C)c2n1` [B-36], the 50% inhibitory concentration (IC50) against human MrgX4 L83S and on human wildtype MrgX2 was more than 100000 nM each time. Besides, the “% inhibition ± SEM” value at human MrgX4 L83S (test concentration not given) was 48%; at human wildtype MrgX2 it was 10%.

In the case of `CCc1c(C(C)C)[nH]c2nc3cc(F)ccc3n2c1=O` [C-74], the results for the IC50 against human MrgX4 L83S and on human wildtype MrgX2 were 18 ± 4.4 nM and 1.26 ± 0.29 nM, respectively.

B1: CXCL14: small chemokine (C-X-C motif) ligand 14 (protein, UniProt O95715 35-111, looked up)
C-X-C motif chemokine 14: SKCKCSRKGPKIRYSDVKKLEMKPKYPHCEEKMVIITTKSVSRYRGQEHCLHPKLQSTKRFIKWYNAWNEKRRVYEE
Regarding B1, the calcium release result in [6] is reported as “not to mediate calcium release”. For the same molecule, the EC50 with MrgX2 [7] is 570 nM.
